{"source": "patent US10046052B2", "about": "“Method and formulation for cold treatment in adults and children with increased safety” (priority 2010, dated 2018)", "tested_on": "patients with cold, cough and other symptoms of respiratory infection (Upper Respiratory Infection, URI/cold)", "note": "Like-named read-outs stand apart in the source and are kept apart here.", "excerpt": "Representative Samples of Clinical Cases of Patients of Varying Ages Treated by a Doctor, with Non or Minimally Sedating Antihistamines for Cold, Cough and Other Symptoms of Respiratory Infection:"}
{"compound": "O=C(O)COCCN1CCN(C(c2ccccc2)c2ccc(Cl)cc2)CC1", "note": "(stereo not drawn) [Cetirizine]", "values": [{"measurement": "relief of URI symptoms", "setting": "Case 1: URI/cold, Cetirizine 10 mg QHS with Triamcinolone Nasal Spray", "value": "rapid relief of URI symptoms"}, {"measurement": "relief of URI symptoms", "setting": "Case 2: same patient as Case 1, URI/cold and Bronchitis, Cetirizine 10 mg QHS, already taking Triamcinolone Nasal Spray", "value": "rapid relief of URI symptoms"}, {"measurement": "relief of URI symptoms", "setting": "Case 3: same patient as Case 1, URI/cold, Cetirizine 10 mg QHS", "value": "rapid relief of URI symptoms"}, {"measurement": "relief of URI symptoms", "setting": "Case 8: URI/cold/Allergic Rhinitis, Cetirizine 10 mg QHS", "value": "rapid relief of URI symptoms"}, {"measurement": "relief of URI and Bronchitis symptoms", "setting": "Case 9: same patient as Case 8, URI/cold/Bronchitis, Allergic Rhinitis, Cetirizine 10 mg QHS and Amoxicillin Clavulanate", "value": "rapid relief of URI and Bronchitis symptoms"}, {"measurement": "relief of URI symptoms", "setting": "Case 14: URI, Cetirizine Liquid 2.5 mg QHS", "value": "rapid relief of URI symptoms"}]}
{"compound": "CC(C)(C(=O)O)c1ccc(C(O)CCCN2CCC(C(O)(c3ccccc3)c3ccccc3)CC2)cc1", "note": "(stereo not drawn) [Fexofenadine]", "values": [{"measurement": "relief of URI symptoms", "setting": "Case 4: URI/cold, Fexofenadine 180 mg QD with Triamcinolone Nasal Spray", "value": "rapid relief of URI symptoms"}, {"measurement": "relief of Pharyngitis and Bronchitis symptoms", "setting": "Case 10: Pharyngitis, Asthma, COPD, Fexofenadine 180 mg QD, Amoxicillin Clavulanate, Prednisone", "value": "rapid relief of Pharyngitis and Bronchitis symptoms"}, {"measurement": "relief of URI and Sinusitis symptoms", "setting": "Case 11: URI/cold, rule out Sinusitis, Fexofenadine 60 mg BID, Amoxicillin Clavulanate", "value": "rapid relief of URI and Sinusitis symptoms"}, {"measurement": "relief of URI symptoms", "setting": "Case 12: same patient as Case 11, Allergic Rhinitis/URI/cold, Fexofenadine 60 mg BID", "value": "rapid relief of URI symptoms"}, {"measurement": "relief of URI symptoms", "setting": "Case 13: same patient as Cases 11 and 12, URI/cold, Fexofenadine 60 mg BID", "value": "rapid relief of URI symptoms"}]}
{"compound": "O=C(O)COCCN1CCN([C@H](c2ccccc2)c2ccc(Cl)cc2)CC1", "note": "[Levocetirizine]", "values": [{"measurement": "relief of URI symptoms", "setting": "Case 5: child, URI/cold, Levocetirizine 2.5 mg at bedtime, Carbinoxamine with Dextromethorphan discontinued", "value": "rapid relief of URI symptoms"}, {"measurement": "relief of cough", "setting": "Case 6: same patient as Case 5, URI/cold, resumed Levocetirizine 2.5 mg at bedtime", "value": "rapid relief of cough"}, {"measurement": "relief of URI symptoms", "setting": "Case 7: same patient as Case 6, Pharyngitis, URI/cold, Levocetirizine 2.5 mg at bedtime, using Mometasone Nasal Spray, asthma inhaler, Montelukast", "value": "rapid relief of URI symptoms"}]}
{"compound": "CCOC(=O)N1CCC(=C2c3ccc(Cl)cc3CCc3cccnc32)CC1", "note": "[Loratidine]", "values": [{"measurement": "relief of URI symptoms", "setting": "Case 15: URI/Pharyngitis, Loratidine 10 mg QD, Azithromycin prescribed by Pediatrician", "value": "rapid relief of URI symptoms"}]}
